Oligonucleotides are written 5' to 3', each unit as a sugar letter and its base; * is a phosphorothioate linkage, no mark a phosphodiester; rarer units and linkages stand in square brackets, end groups in braces. Plain capitals give the bases only. e = 2'-O-(2-methoxyethyl) (MOE); [5mC] = 5-methylcytosine; d = 2'-deoxy (DNA)
What was measured:
Format in all cases: cell-based
[1] = test system: Human STAT3 mRNA; assay: Inhibition of human STAT3 mRNA expression in U266 cells, Northern blot; conditions: for % mRNA INHIBITION / % mRNA EXPRESSION: U266 cells, 2.5 μM oligonucleotide, electroporation, 24 hours; for % mRNA EXPRESSION: percent of control
Method: U266 human myeloma cell lines (originally obtained from American Type Culture Collection) were maintained in RPMI 1640 medium supplemented with 10% fetal calf serum. Cells (15×10^6 cells in PBS) were transfected with oligonucleotides at 200V with a single 6-millisecond pulse using a BTX Electro Square Porator T820 (Genetronics, San Diego Calif.). The cells were incubated for 24 hours before RNA extraction.
Total cellular RNA was isolated using the Rneasy kit (Qiagen, Santa Clarita, Calif.). Northern blotting was perfomed on 15 μg of RNA using a cDNA probe prepared from MB-MDA 468 RNA by standard RT-PCR followed by a nested primer reaction. Signals were quantitated using a Molecular Dynamics Phosphorimager.
In order to examine the importance of STAT3 expression in multiple myeloma cells, a series of 20mer STAT3 antisense oligonucleotides were designed and synthesized, using phosphorothioate chemistry and incorporating 2′-O-methoxyethyl modifications to improve hybridization affinity and nuclease resistance.

[2] = test system: Human STAT3 mRNA; assay: Human STAT3 mRNA dose response in A549 cells, real-time PCR with PPS 199 (Table 20); conditions: 16 hours, LIPOFECTIN, − decrease, + increase relative to untreated control cells
Method: An additional dose-response experiment was preformed in A549 cells. A549 cells were treated with 18.75, 37.5, 75, or 150 nM of oligonucleotide mixed with 3 ug/mL LIPOFECTIN per 100 nM oligonucleotide as described by other examples herein. Control oligonucleotides used were ISIS 129686 (SEQ ID NO: 394) and ISIS 129690 (SEQ ID NO: 393). Untreated cells served as controls. Following 16 hours of treatment, RNA was prepared from cells for subsequent real-time PCR analysis.
Human STAT3 mRNA expression levels were quantitated by real-time PCR using primer probe set PPS 199 and gene target quantities were normalized using Ribogreen as described in other examples herein. A “−” or “+” designation in the dose response results indicates a decrease or increase of STAT 3 mRNA expression, respectively, relative to untreated control cells.

[3] = test system: Human STAT3 mRNA; assay: Human STAT3 mRNA dose response in T-24 cells, real-time PCR with PPS 199 (Table 18); conditions: 16 hours, − decrease, + increase relative to untreated control
Excerpt: The transitional cell bladder carcinoma cell line T-24 was obtained from the American Type Culture Collection (ATCC) (Manassas, Va.). T-24 cells were routinely cultured in complete McCoy's 5A basal media (Gibco/Life Technologies, Gaithersburg, Md.) supplemented with 10% fetal calf serum (Gibco/Life Technologies, Gaithersburg, Md.), penicillin 100 units per mL, and streptomycin 100 micrograms per mL (Gibco/Life Technologies, Gaithersburg, Md.). Cells were routinely passaged by trypsinization and dilution when they reached 90% confluence. Cells were seeded into 96-well plates (Falcon-Primaria #3872) at a density of 7000 cells/well for use in RT-PCR analysis.
Control oligonucleotides used were ISIS 129695 ([…], SEQ ID NO: 391), ISIS 129694 ([…] SEQ ID NO: 392), ISIS 129690 ([…] SEQ ID NO: 393), ISIS 129686 ([…] SEQ ID NO: 394), ISIS 116847 ([…], SEQ ID NO: 395) and ISIS 113529 ([…] SEQ ID NO: 396). These are universal scrambled control oligonucleotides.
(§1) T-24 cells were treated with 18.75, 37.5, 75, or 150 nM of oligonucleotide mixed with 3 ug/mL LIPOFECTIN per 100 nM oligonucleotide as described by other examples herein. Untreated cells served as controls. Following 16 hours of treatment, RNA was prepared from cells for subsequent real-time PCR analysis.
Human STAT3 mRNA expression levels were quantitated by real-time PCR using primer probe set PPS 199 and gene target quantities were normalized using Ribogreen as described in other examples herein. A “−” or “+” designation indicates a decrease or increase of STAT 3 mRNA expression, respectively, relative to untreated control cells.

[4] = test system: Human STAT3 mRNA; assay: Human STAT3 mRNA dose response in T-24 cells, real-time PCR with PPS 2033 (Table 19); conditions: 16 hours, − decrease, + increase relative to untreated control
Method: The dose-response was repeated in T-24 cells and gene target quantities were measured using a different primer-probe set, called PPS 2033 herein. PPS 2033 comprises probes and primers to human STAT3 were designed to hybridize to a human STAT3 sequence, using published sequence information (incorporated herein as SEQ ID NO: XXX). For PPS 2033 the PCR primers were: forward primer: GAGGCCCGCCCAACA (SEQ ID NO: 397) reverse primer: […] (SEQ ID NO: 398) and the PCR probe was: FAM-CTGCCTAGATCGGC-TAMRA (SEQ ID NO: 399) where FAM is the fluorescent reporter dye and TAMRA is the quencher dye. Gene target quantities obtained by real time RT-PCR are normalized by quantifying total RNA using RiboGreen™ (Molecular Probes, Inc. Eugene, Oreg.). Control oligonucleotides used were ISIS 129695 (SEQ ID NO: 391), ISIS 129694 (SEQ ID NO: 392), ISIS 129690 (SEQ ID NO: 393), ISIS 129686 (SEQ ID NO: 394), ISIS 116847 (SEQ ID NO: 395) and ISIS 113529 (SEQ ID NO: 396).
as §1
Human STAT3 mRNA expression levels were quantitated by real-time PCR using primer probe set PPS 2033 and gene target quantities were normalized using Ribogreen as described in other examples herein. A “−” or “+” designation indicates a decrease or increase of STAT 3 mRNA expression, respectively, relative to untreated control cells.

Substance: 113209 (antisense eA*eA*eA*eA*eG*dT*dG*d[5mC]*d[5mC]*d[5mC]*dA*dG*dA*dT*dT*eG*e[5mC]*eT*e[5mC]*eA) [compound 113209]
- Percent inhibition of STAT3 expression ([1]; Oligo concentration 2.5 μM): 43%
- Percent inhibition of STAT3 expression ([1]; Oligo concentration 5 μM): 54%
- Percent inhibition of STAT3 expression ([1]; Oligo concentration 10 μM): 73%
- % mRNA INHIBITION [1]: 28.6%
- % mRNA EXPRESSION [1]: 71.4%

Substance: 113210 (antisense eT*eA*eA*eA*eA*dG*dT*dG*d[5mC]*d[5mC]*d[5mC]*dA*dG*dA*dT*eT*eG*e[5mC]*eT*e[5mC]) [compound 113210]
- Percent inhibition of STAT3 expression ([1]; Oligo concentration 2.5 μM): 36%
- Percent inhibition of STAT3 expression ([1]; Oligo concentration 5 μM): 50%
- Percent inhibition of STAT3 expression ([1]; Oligo concentration 10 μM): 76%
- % mRNA INHIBITION [1]: 27.8%
- % mRNA EXPRESSION [1]: 72.2%

Substance: 113211 (antisense eA*eA*eG*e[5mC]*eA*dG*dA*dT*d[5mC]*dA*d[5mC]*d[5mC]*d[5mC]*dA*d[5mC]*eA*eT*eT*e[5mC]*eA) [compound 113211]
- % mRNA EXPRESSION [1]: 116.5%

Substance: 129686 (antisense CGTTATTAACCTCCGTTGAA; all phosphorothioate, sugars by position and methylation of C not given here; 2'-MOE wings and deoxy gap) [compound 129686]
- Percent change of STAT3 expression in A549 cells using PPS 199 ([2]; 18.75 nM oligonucleotide): +27%
- Percent change of STAT3 expression in A549 cells using PPS 199 ([2]; 37.5 nM oligonucleotide): +23%
- Percent change of STAT3 expression in A549 cells using PPS 199 ([2]; 75 nM oligonucleotide): +22%
- Percent change of STAT3 expression in A549 cells using PPS 199 ([2]; 150 nM oligonucleotide): +19%
- Percent change of STAT3 expression using PPS 199 ([3]; 18.75 nM oligonucleotide): +2%
- Percent change of STAT3 expression using PPS 199 ([3]; 37.5 nM oligonucleotide): +1%
- Percent change of STAT3 expression using PPS 199 ([3]; 75 nM oligonucleotide): −5%
- Percent change of STAT3 expression using PPS 199 ([3]; 150 nM oligonucleotide): +1%
- Percent change of STAT3 expression using PPS 2033 ([4]; 18.75 nM oligonucleotide): +20%
- Percent change of STAT3 expression using PPS 2033 ([4]; 37.5 nM oligonucleotide): +16%
- Percent change of STAT3 expression using PPS 2033 ([4]; 75 nM oligonucleotide): +25%
- Percent change of STAT3 expression using PPS 2033 ([4]; 150 nM oligonucleotide): +9%

Substance: 129690 (antisense TTAGAATACGTCGCGTTATG; all phosphorothioate, sugars by position and methylation of C not given here; 2'-MOE wings and deoxy gap) [compound 129690]
- Percent change of STAT3 expression in A549 cells using PPS 199 ([2]; 18.75 nM oligonucleotide): +30%
- Percent change of STAT3 expression in A549 cells using PPS 199 ([2]; 37.5 nM oligonucleotide): +27%
- Percent change of STAT3 expression in A549 cells using PPS 199 ([2]; 75 nM oligonucleotide): +16%
- Percent change of STAT3 expression in A549 cells using PPS 199 ([2]; 150 nM oligonucleotide): +27%
- Percent change of STAT3 expression using PPS 199 ([3]; 18.75 nM oligonucleotide): +2%
- Percent change of STAT3 expression using PPS 199 ([3]; 37.5 nM oligonucleotide): +7%
- Percent change of STAT3 expression using PPS 199 ([3]; 75 nM oligonucleotide): +6%
- Percent change of STAT3 expression using PPS 199 ([3]; 150 nM oligonucleotide): +8%
- Percent change of STAT3 expression using PPS 2033 ([4]; 18.75 nM oligonucleotide): +4%
- Percent change of STAT3 expression using PPS 2033 ([4]; 37.5 nM oligonucleotide): +10%
- Percent change of STAT3 expression using PPS 2033 ([4]; 75 nM oligonucleotide): +8%
- Percent change of STAT3 expression using PPS 2033 ([4]; 150 nM oligonucleotide): +11%

— patent US20050074879A1, “Antisense oligonucleotide modulation of STAT3 expression” (priority 2000, published 2005)
